# According to patent US20100215618A1, “NOVEL COMPOUNDS - 644” (Arrow Therapeutics Limited, priority 2009, published 2010):
# Test system: HCV replicon cells Huh 9B
# Format: cell-based
# Settings: Huh 9B replicon cells, 72 h, methylene blue, total cell area reduced by 50%
row,SMILES,HCV TD50 Replicon [µM]
1,"CC(C)(C)OC(=O)N[C@@H](C(=O)N1CCC[C@H]1c1ncc(-c2ccc(-c3ccc(C(=O)Nc4ccc(CN5CCS(=O)(=O)CC5)cc4)cc3)cc2)[nH]1)c1ccccc1 [Example 2, Tert-butyl N-[(1R)-2-[(2S)-2-[5-[4-[4-[[4-[(1,1-dioxo-1,4-thiazinan-4-yl)methyl]phenyl]carbamoyl]phenyl]phenyl]-1H-imidazol-2-yl]pyrrolidin-1-yl]-2-oxo-1-phenyl-ethyl]carbamate]",>25
2,"COC(=O)N[C@H](C(=O)N1CCC[C@H]1c1ncc(-c2ccc(-c3ccc(C(=O)Nc4ccc(CN5CCS(=O)(=O)CC5)cc4)cc3)cc2)[nH]1)C(C)C [Example 3, Methyl N-[(1S)-1-[(2S)-2-[5-[4-[4-[[4-[(1,1-dioxo-1,4-thiazinan-4-yl)methyl]phenyl]carbamoyl]phenyl]phenyl]-1H-imidazol-2-yl]pyrrolidine-1-carbonyl]-2-methyl-propyl]carbamate]",>25
3,"COC(=O)N[C@H](C(=O)N1CCC[C@H]1c1ncc(-c2ccc(-c3ccc(C(=O)Nc4ccc(CN5CCS(=O)(=O)CC5)cc4)cc3)cc2)[nH]1)C(C)(C)C [Example 5, Methyl N-[(1S)-1-[(2S)-2-[5-[4-[4-[[4-[(1,1-dioxo-1,4-thiazinan-4-yl)methyl]phenyl]carbamoyl]phenyl]phenyl]-1H-imidazol-2-yl]pyrrolidine-1-carbonyl]-2,2-dimethyl-propyl]carbamate]",3.9
4,"COC(=O)N[C@H](C(=O)N1CCC[C@H]1c1ncc(-c2ccc(-c3ccc(C(=O)Nc4ccc(CN5CCS(=O)(=O)CC5)cc4)cc3)cc2)[nH]1)c1ccccc1 [Example 6, Methyl N-[(1S)-2-[(2S)-2-[5-[4-[4-[[4-[(1,1-dioxo-1,4-thiazinan-4-yl)methyl]phenyl]carbamoyl]phenyl]phenyl]-1H-imidazol-2-yl]pyrrolidin-1-yl]-2-oxo-1-phenyl-ethyl]carbamate]",>25
5,"COC(=O)N[C@@H](C(=O)N1CCC[C@H]1c1ncc(-c2ccc(-c3ccc(C(=O)Nc4ccc(CN5CCS(=O)(=O)CC5)cc4)cc3)cc2)[nH]1)c1ccccc1 [Example 7, Methyl N-[(1R)-2-[(2S)-2-[5-[4-[4-[[4-[(1,1-dioxo-1,4-thiazinan-4-yl)methyl]phenyl]carbamoyl]phenyl]phenyl]-1H-imidazol-2-yl]pyrrolidin-1-yl]-2-oxo-1-phenyl-ethyl]carbamate]",>25
6,"CCN(CC)[C@@H](C(=O)N1CCC[C@H]1c1ncc(-c2ccc(-c3ccc(C(=O)Nc4ccc(CN5CCS(=O)(=O)CC5)cc4)cc3)cc2)[nH]1)c1ccccc1 [Example 8, 4-[4-[2-[(2S)-1-[(2R)-2-(diethylamino)-2-phenyl-acetyl]pyrrolidin-2-yl]-1H-imidazol-5-yl]phenyl]-N-[4-[(1,1-dioxo-1,4-thiazinan-4-yl)methyl]phenyl]benzamide]",>25
7,"CN(C)[C@@H](C(=O)N1CCC[C@H]1c1ncc(-c2ccc(-c3ccc(C(=O)Nc4ccc(CN5CCS(=O)(=O)CC5)cc4)cc3)cc2)[nH]1)c1ccccc1 [Example 9, 4-[4-[2-[(2S)-1-[(2R)-2-(dimethylamino)-2-phenyl-acetyl]pyrrolidin-2-yl]-1H-imidazol-5-yl]phenyl]-N-[4-[(1,1-dioxo-1,4-thiazinan-4-yl)methyl]phenyl]benzamide]",>25
8,"COC(=O)N[C@@H](CC(C)C)C(=O)N1CCC[C@H]1c1ncc(-c2ccc(-c3ccc(C(=O)Nc4ccc(CN5CCS(=O)(=O)CC5)cc4)cc3)cc2)[nH]1 [Example 14, Methyl N-[(1S)-1-[(2S)-2-[5-[4-[4-[[4-[(1,1-dioxo-1,4-thiazinan-4-yl)methyl]phenyl]carbamoyl]phenyl]phenyl]-1H-imidazol-2-yl]pyrrolidine-1-carbonyl]-3-methyl-butyl]carbamate]",>25
9,"CC[C@H](C)[C@H](NC(=O)OC)C(=O)N1CCC[C@H]1c1ncc(-c2ccc(-c3ccc(C(=O)Nc4ccc(CN5CCS(=O)(=O)CC5)cc4)cc3)cc2)[nH]1 [Example 16, Methyl N-[(1S,2S)-1-[(2S)-2-[5-[4-[4-[[4-[(1,1-dioxo-1,4-thiazinan-4-yl)methyl]phenyl]carbamoyl]phenyl]phenyl]-1H-imidazol-2-yl]pyrrolidine-1-carbonyl]-2-methyl-butyl]carbamate]",>25
10,"COC(=O)N[C@H](C(=O)N1CCOC[C@H]1c1ncc(-c2ccc(-c3ccc(C(=O)Nc4ccc(CN5CCS(=O)(=O)CC5)cc4)cc3)cc2)[nH]1)c1ccccc1 [Example 47, Methyl N-[(1S)-2-[(3R)-3-[5-[4-[4-[[4-[(1,1-dioxo-1,4-thiazinan-4-yl)methyl]phenyl]carbamoyl]phenyl]phenyl]-1H-imidazol-2-yl]morpholin-4-yl]-2-oxo-1-phenyl-ethyl]carbamate]",>25
11,"COC(=O)N[C@H](C(=O)N1CCC[C@H]1c1ncc(-c2ccc(-c3ccc(C(=O)Nc4ccc(CN5CCS(=O)(=O)CC5)cc4)cc3)c(C)c2)[nH]1)C(C)C [Example 54, Methyl N-[(1S)-1-[(2S)-2-[5-[4-[4-[[4-[(1,1-dioxo-1,4-thiazinan-4-yl)methyl]phenyl]carbamoyl]phenyl]-3-methyl-phenyl]-1H-imidazol-2-yl]pyrrolidine-1-carbonyl]-2-methyl-propyl]carbamate]",>25
